Source: PubChem BioAssay AID588640 (The Scripps Research Institute Molecular Screening Center, 2011)
Calls of active or inactive are those of the source.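 The calls were made as follows: active = p38 protein level shifted at least 30% from the DMSO control, either lower or higher; inactive = the rest.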

Test system: HCT116 p38 protein level, western blot, 24 h
Assay: p38 MAPK abundance shift in treated cells – cell-based, HCT116 colorectal carcinoma, chemiluminescent western blot, counter-screen for KLF5 inhibitor project, late-stage follow-up (AID 588640)
Details: at 10 µM; for inhibition: stronger effect = higher value; for fold change: measured here: p38 band fold change vs DMSO

Row | SMILES | inhibition | fold change
1 | CN(C(=O)CNC(=O)/C=C/c1cccc(Cl)c1)C1CCS(=O)(=O)CC1 | 35.2% | 0.647
2 | CN(C(=O)CNC(=O)/C=C/c1cccc(Cl)c1)C1CCS(=O)(=O)C1 (stereo unspecified) | -15.7% (inactive) | 1.16
3 | CN(C(=O)COC(=O)/C=C/c1cccc([N+](=O)[O-])c1)C1CCS(=O)(=O)C1 (stereo unspecified) | 36.3% | 0.658
